28 molecules from patent US9751884B2, “N-aryl unsaturated fused ring tertiary amine compounds, preparation method and anti-tumor applications thereof” (Institute of Pharmacology and Toxicology Academy of …, priority 2012, dated 2017) can be followed below.

In one series the test system is A549 lung cancer cells. Briefly: Experiments of inhibiting growth of cancer cells, SRB method, A549. Type of series: cell-based. Conditions: Homo sapiens, 48 h with drug. On the procedure: (§1) The cells were placed in 2.5 cm culture dish and cultured at 37° C. in wet air containing 5% CO2. Cell lines grew adhering to wall. The preparation and dilution of samples as well as process for inoculating them to cellular fluid were performed under aseptic condition. The test samples usually were dissolved in DMSO, stored at −70° C. […] GI50 values about inhibiting growth of cancer cells were determined by SRB (sulfonyl rhodamine B) method. Anticancer drug paclitaxel was used as positive control.
(§2) A549: lung cancer cells; DU145: prostate cancer cells; KB: nasopharyngeal cancer cells; KB-VIN: drug-resistant nasopharyngeal cancer cells. GI50 value was the concentration that causes 50% cancer cells growth inhibition, showing anticancer activity.

Series [1] has as its system DU145 prostate cancer cells. Briefly: Experiments of inhibiting growth of cancer cells, SRB method, DU145. It counts as cell-based. Conditions: Homo sapiens, DU-145, 48 h with drug. On the procedure: as §1, §2

Converted amounts (≈) assume the structure as drawn.

Regarding `COc1ccc2c(c1)CCCN2c1nc(Cl)nc2ccccc12` [Compound 1, N^1-[4-(2-chloro)quinazolinyl]-6-methoxy-1,2,3,4-tetrahydroquinoline], the GI50 with A549 lung cancer cells is 0.0006 µg/mL (≈ 0.00184 µM); in series [1], 0.0005 µg/mL (≈ 0.00153 µM).
`COc1ccc2c(c1)CCCN2c1nc(C)nc2ccccc12` [Compound 2, N^1-[4-(2-methyl)quinazolinyl]-6-methoxy-1,2,3,4-tetrahydroquinoline]: the results for the GI50 (in the series on A549 lung cancer cells; in series [1]) were 0.0056 µg/mL (≈ 0.0183 µM) and 0.0046 µg/mL (≈ 0.0151 µM), respectively.
The molecule `COc1ccc2c(c1)CCCN2c1nc(OC)nc2ccccc12` [Compound 3, N^1-[4-(2-methoxy)quinazolinyl]-6-methoxy-1,2,3,4-tetrahydro-quinoline] had a melting point of 161 to 163 °C. In the series on A549 lung cancer cells, this molecule came in with a GI50 of 0.0077 µg/mL (≈ 0.024 µM). Growth in series [1] was halved (GI50) at 0.0069 µg/mL (≈ 0.0215 µM).
In the case of `CNc1nc(N2CCCc3cc(OC)ccc32)c2ccccc2n1` [Compound 4, N^1-[4-(2-methylamino)quinazolinyl]-6-methoxy-1,2,3,4-tetrahydro-quinoline], the 50% growth inhibitory concentration (GI50) with A549 lung cancer cells stood at 0.0088 µg/mL (≈ 0.0275 µM); in series [1], 0.0075 µg/mL (≈ 0.0234 µM).
On to `Cc1ccc2c(c1)CCCN2c1nc(C)nc2ccccc12` [Compound 6, N^1-[4-(2-methyl)quinazolinyl]-6-methyl-1,2,3,4-tetrahydroquinoline], for which the melting point is 136 to 138 °C. In the series with A549 lung cancer cells, this molecule yielded a GI50 of 0.061 µg/mL (≈ 0.211 µM). Besides, in series [1], growth was halved (GI50) at 0.051 µg/mL (≈ 0.176 µM).
For `Cc1nc(N2CCCc3cc(Br)ccc32)c2ccccc2n1` [Compound 7, N^1-[4-(2-methyl)quinazolinyl]-6-bromo-1,2,3,4-tetrahydroquinoline], the melting point fell in the range of 129 to 130 °C. The molecule also showed a GI50 with A549 lung cancer cells of 0.075 µg/mL (≈ 0.212 µM). Further, the GI50 in series [1] came to 0.06 µg/mL (≈ 0.169 µM).
The molecule `COc1ccc2c(c1)CCN2c1nc(C)nc2ccccc12` [Compound 8, 2-Methyl-4-[N^1-(5-methoxy)indolinyl]quinazoline] registered a melting point of 116 to 117 °C. In the series on A549 lung cancer cells, this molecule showed a GI50 of 0.0679 µg/mL (≈ 0.233 µM). Also, the GI50 in series [1] stood at 0.059 µg/mL (≈ 0.203 µM).
The matching figures for `COc1ccc2c(c1)CCCN(c1nc(C)nc3ccccc13)C2` [Compound 9, N^2-[4-(2-methyl)quinazolinyl]-7-methoxy-2,3,4,5-tetrahydro-1H-benzo[c]azepine]: 125 to 127 °C, 5.34 µg/mL (≈ 16.7 µM) and 4.76 µg/mL (≈ 14.9 µM).
The matching figures for `COc1ccc2c(c1)CCCCN2c1nc(Cl)nc2ccccc12` [Compound 10, N^1-[4-(2-chloro)quinazolinyl]-7-methoxy-2,3,4,5-tetrahydro-1H-benzo[b]-azepine]: 102 to 103 °C, 0.065 µg/mL (≈ 0.191 µM) and 0.056 µg/mL (≈ 0.165 µM).
As for `COc1ccc2c(c1)C(O)CCN2c1nc(C)nc2ccccc12` (stereo not shown) [Compound 11, N^1-[4-(2-methyl)quinazolinyl]-4-hydroxyl-6-methoxy-1,2,3,4-tetrahydroquinoline], the GI50 (in the series with A549 lung cancer cells; in series [1]) was 0.006 µg/mL (≈ 0.0187 µM) in each case.
As for `CCOC1CCN(c2nc(Cl)nc3ccccc23)c2ccc(OC)cc21` (stereo not shown) [Compound 12, N^1-[4-(2-chloro)quinazolinyl]-4-ethoxy-6-methoxy-1,2,3,4-tetrahydroquinoline], the melting point lay in the range of 70 to 72 °C. The molecule also displayed a GI50 in the series on A549 lung cancer cells of 0.065 µg/mL (≈ 0.176 µM). Further, it took 0.06 µg/mL (≈ 0.162 µM) to inhibit growth in series [1] by half (GI50).
As for `COc1ccc2c(c1)OCCN2c1nc(Cl)nc2ccccc12` [Compound 13, N^4-[4-(2-chloro)quinazolinyl]-7-methoxy-3,4-dihydro-2H-benzo[b][1,4]oxazine], the melting point was in the range of 173 to 174 °C. In the series on A549 lung cancer cells, this molecule came in with a GI50 of 0.065 µg/mL (≈ 0.198 µM). Further, the 50% growth inhibitory concentration (GI50) in series [1] was 0.055 µg/mL (≈ 0.168 µM).
The matching figures for `COc1cc2c(cc1F)N(c1nc(C)nc3ccccc13)CCO2` [Compound 14, N^4-[4-(2-methyl)quinazolinyl]-6-fluoro-7-methoxy-3,4-dihydro-2H-benzo[b][1,4]oxazine]: 192 to 194 °C, 4.71 µg/mL (≈ 14.5 µM) and 7.77 µg/mL (≈ 23.9 µM).
`COc1ccc2c(c1)C(=O)CCN2c1nc(Cl)nc2ccccc12` [Compound 18, N^1-[4-(2-chloro)quinazolinyl]-6-methoxy-2,3-dihydroquinolin-4(1H)-one] displayed a melting point of 218 to 220 °C. In the series with A549 lung cancer cells, this molecule gave a GI50 of 0.0091 µg/mL (≈ 0.0268 µM). The molecule further came in with a GI50 in series [1] of 0.0106 µg/mL (≈ 0.0312 µM).
In the case of `COc1ccc2c(c1)NC(=O)CN2c1nc(C)nc2ccccc12` [Compound 19, N^4-[4-(2-methyl)quinazolinyl]-7-methoxy-3,4-dihydroquinoxalin-2(1H)-one], the GI50 with A549 lung cancer cells was found to be 0.001 µg/mL (≈ 0.00312 µM); in series [1] it was 0.0007 µg/mL (≈ 0.00219 µM).
Take `COc1ccc2c(c1)CCCN2c1cc(C)nc2ccccc12` [Compound 20, 6-methoxy-2′-methyl-3,4-dihydro-2H-1,4′-biquinoline]: the GI50 stood at 0.0138 µg/mL (≈ 0.0453 µM) in the series on A549 lung cancer cells and 0.0115 µg/mL (≈ 0.0378 µM) in series [1].
With `COC(=O)c1cc(Br)cc(N2CCCc3cc(OC)ccc32)c1` [Compound 26, N^1-[(3-bromo-5-methoxycarbonyl)phenyl]-6-methoxy-1,2,3,4-tetrahydroquinoline], the GI50 with A549 lung cancer cells is 0.421 µg/mL (≈ 1.12 µM); in series [1], 0.483 µg/mL (≈ 1.28 µM).
Molecule `COc1ccc2c(c1)CCCN2c1cc(Br)cc(C(=O)O)c1` [Compound 27, N^1-[(3-bromo-5-carboxyl)phenyl]-6-methoxy-1,2,3,4-tetrahydro-quinoline] displayed a melting point of 175 to 177 °C.
In the case of `CNC(=O)c1cc(Br)cc(N2CCCc3cc(OC)ccc32)c1` [Compound 28, N^1-[(3-bromo-5-methylaminoacyl)phenyl]-6-methoxy-1,2,3,4-tetrahydroquinoline], the melting point was in the range of 166 to 167 °C. The molecule further registered a 50% growth inhibitory concentration (GI50) in the series on A549 lung cancer cells of 0.14 µg/mL (≈ 0.373 µM). This molecule yielded a GI50 in series [1] of 0.209 µg/mL (≈ 0.557 µM).
Take `COc1ccc2c(c1)CCCN2c1cc(Br)cc(C(=O)NC2CC2)c1` [Compound 29, N^1-[3-bromo-5-(N-cyclopropylaminoacyl)phenyl]-6-methoxy-1,2,3,4-tetrahydroquinoline]: the GI50 was found to be 0.067 µg/mL (≈ 0.167 µM) in the series with A549 lung cancer cells and 0.062 µg/mL (≈ 0.154 µM) in series [1].
Molecule `COc1ccc2c(c1)CCCN2c1cc(Cl)nc(N)n1` [Compound 30, N^1-[4-(2-amino-6-chloro)pyrimidinyl]-6-methoxy-1,2,3,4-tetrahydro-quinoline] gave a melting point of 179 to 181 °C. The molecule also registered a GI50 in the series on A549 lung cancer cells of 0.077 µg/mL (≈ 0.265 µM). In series [1], this molecule showed a GI50 of 0.06 µg/mL (≈ 0.206 µM).
As to `COc1ccc2c(c1)N(C)C(=O)CN2c1nc(C)nc2ccccc12` [Compound 31, N^1-methyl-N^4-[4-(2-methyl)quinazolinyl]-7-methoxy-3,4-dihydro-quinoxalin-2(1H)-one], the GI50 in the series with A549 lung cancer cells came to 0.0063 µg/mL (≈ 0.0188 µM); in series [1], 0.0072 µg/mL (≈ 0.0215 µM).
Take `COc1ccc2c(c1)CCCN2c1nc(N(C)C)nc2ccccc12` [Compound 32, 2-(N-methylmethylamino)-4-(6-methoxy-1,2,3,4-tetrahydro-1-quinolyl)quinazoline]: the values for the GI50 (in the series on A549 lung cancer cells; in series [1]) were 0.056 µg/mL (≈ 0.167 µM) and 0.051 µg/mL (≈ 0.153 µM), respectively.
The matching figures for `COc1ccc2c(c1)CCCN2c1nc(NC2CC2)nc2ccccc12` [Compound 33, 2-cyclopropylamino-4-(6-methoxy-1,2,3,4-tetrahydro-1-quinolyl) quinazoline]: 0.0057 µg/mL (≈ 0.0165 µM) and 0.0045 µg/mL (≈ 0.013 µM).
The matching figures for `COc1ccc2c(c1)CCCN2c1nc(NC2CCCC2)nc2ccccc12` [Compound 34, 2-cyclopentylamino-4-(6-methoxy-1,2,3,4-tetrahydro-1-quinolyl) quinazoline]: 0.501 µg/mL (≈ 1.34 µM) and 0.483 µg/mL (≈ 1.29 µM).
Consider `COc1ccc2c(c1)CCCN2c1nc(NCCCO)nc2ccccc12` [Compound 35, 2-(3-hydroxylpropylamino)-4-(6-methoxy-1,2,3,4-tetrahydro-1-quinolyl)quinazoline], for which the 50% growth inhibitory concentration (GI50) was found to be 0.0058 µg/mL (≈ 0.0159 µM) in the series on A549 lung cancer cells and 0.0073 µg/mL (≈ 0.02 µM) in series [1].
Regarding `COc1ccc2c(c1)CCCN2c1cccc2ccccc12` [Compound 37, 4-(6-methoxy-1,2,3,4-tetrahydro-1-quinolyl)naphthalene], the figures for the concentration for 50% growth inhibition (GI50) (with A549 lung cancer cells; in series [1]) were 5.15 µg/mL (≈ 17.8 µM) and 4.27 µg/mL (≈ 14.8 µM), respectively.
For `CC(=O)O[C@H]1C(=O)[C@@]2(C)[C@H]([C@H](OC(=O)c3ccccc3)[C@]3(O)C[C@H](OC(=O)[C@H](O)[C@@H](NC(=O)c4ccccc4)c4ccccc4)C(C)=C1C3(C)C)[C@]1(OC(C)=O)CO[C@@H]1C[C@@H]2O` [Paclitaxel, paclitaxel, reference compound] the same measures were 0.0065 µg/mL (≈ 0.00761 µM) and 0.0053 µg/mL (≈ 0.00621 µM).
